Source: patent publication US10577610B2, “EpCAM aptamers and conjugates thereof” (Deakin University, priority 2015, dated 2020)
[invdT] = inverted (3'-3') thymidine; {TYE665} = TYE665 fluorescent dye

How the values were obtained:
[1] = system: bEnd.3 cells; assay: Confocal microscopy internalisation into bEnd.3 cells; type: cell-based, mouse; conditions: for Internalisation into TfR-expressing bEnd.3 cells: conjugate aptamers, 400 nM, two hour, confocal microscopy
Method: Confocal microscopy was used as a means of visualising aptamer internalisation into the cells. Both aptamers and cells were prepared in the same manner as described above before they were mixed and allowed to incubate at 37° C. The aptamers were used at a concentration of 200 nM and were allowed to incubate for 60 minutes. The concentration for the conjugate (bifunctional) aptamers was 400 nM and these were incubated with the cells for 120 minutes. Ten minutes prior to end of incubation, 2 μL of Hoechst nuclear stain (10 mg/mL) was added to cells. Cells were then washed three times with 100 μL of PBS as described above and resuspended in 20 μL (8×10^5 cells/well) in an 8-chambered slide (Lab-Tek II, Nunc) for visualisation. Cells were incubated in blocking buffer for 60 mins followed by resuspension in binding buffer containing the aptamer and incubated for 60 mins at 37° C. […] The aptamer solution was removed and the cells were washed three times for 5 min each in PBS prior to visualisation using a FluoView FV10i laser scanning confocal microscope (Olympus). In order to assess the mechanism of cellular uptake, the internalisation of a phycoethyrin-labelled rat anti-mouse TfR monoclonal antibody (R17217; Abcam) was also visualised by confocal microscopy by co-incubating it with the aptamer at 1 μg/mL for 30 minutes. The uptake of these aptamers into cells is an important factor in determining the potential for use as therapeutics. The anti-transferrin receptor aptamers generated herein are designed to pass through the BBB via the active transcytosis pathway. […] This was done by visualising the internalisation of aptamers at a concentration of 200 nM into bEnd.3 and MOLT4 cells over the course of a one hour incubation with confocal microscopy. Aptamers are relatively new molecular tools in the field of diagnostics and therapeutics. […] The performance of the aptamer with a corresponding antibody was compared by examining uptake in bEnd.3 cells. This was done by incubating the highest affinity aptamer, TfR3, and the anti-TfR antibody with the bEnd.3 cells and observing them via confocal microscopy. The anti-TfR aptamers generated herein are intended to be used as drug delivery agents capable of crossing the blood-brain barrier (BBB). In an in vivo or clinical setting, these would need to pass from the bloodstream and into the BBB endothelial monolayer before exiting on the other side into the brain parenchyma. Given this, it is vital that these are not only capable of entered cells via active transport processes, but can also exocytose out again. Therefore, a time course internalisation experiment was conducted in order to establish whether or not the aptamers are being retained in the cells or are returning to the extracellular fluid. […]

[2] = system: in vitro BBB model (bEnd.3 endothelial monolayer); assay: Aptamer permeability across in vitro blood brain barrier model (HEY-bEnd.3 co-culture); type: in vitro ADME, mouse; conditions: 2 μM in upper compartment, three hours
Method: In order to assess the ability of the TfR containing aptamers to pass through an endothelial cell monolayer via receptor mediated transport (RMT) an in vitro model of the BBB was produced as shown schematically in FIG. 1. Transwell inserts (polyethylene terephthalate (PET) with 0.4 μm diameter pores) within a 24-well plate (Corning) were incubated with 100 μL of 50% Collagen IV for 2 hours at 37° C. Flasks of bEnd.3 cells were trypsinised to generate a single-cell suspension, and counted using a haemocytometer and trypan blue to ensure that a sufficient proportion of cells were alive. These were then centrifuged and resuspended in media. Wells were filled with 800 μL of serum-free media and transwell inserts were placed on top. Cells were then seeded in 90 μL of serum-free media at a density of 1×10^6 cells/cm^2 and were allowed to incubate at 37° C. Cells were allowed to settle for 6 hours and then 60 μL of enhanced media (DMEM low glucose: Ham's F12 (1:1), (both serum-free) 550 nM hydrocortisone, 32 μM cAMP, 17.5 μM aminophylline, 1 μM retinoic acid, 5 μg/mL insulin, 2.75 μg/mL transferrin, 2.5 ng/mL sodium selenite, 100 ng/mL bFGF (basic fibroblast growth factor), 20 ng/mL EGF (epidermal growth factor)) (Wuest D M et al (2013) Journal of Neuroscience Methods 212(2):211-21) was added to the transwells. Media in both compartments were replaced the next day with enhanced media in order to supplement the growth of the monolayer.
HEY cells were subcultured and counted using a haemocytometer and trypan blue in order to assess the percentage of living cells. Subsequently, they were diluted in DMEM media at a concentration of 87 500 cells/mL. Media was removed from the bottom compartment of the in vitro BBB model and replaced with 800 μL of the HEY cell solution, seeding at 70 000 cells per well. These were allowed to incubate overnight. Next, media was removed from the upper compartment of the transwells and 100 μL of aptamer at a concentration of 2 μM was pipetted on top of the transwell membrane. […]

## 5′-GCGCGGGCCCGCGCTAACGGAGGTTGCGTCCGT-3′ (GCGCGGGCCCGCGCTAACGGAGGTTGCGTCCGN; DNA sequence of aptamer conjugate Bi2; (33)..(33) n is t or 3′ inverted deoxythymidine (dT))
[1]
  Internalisation into TfR-expressing bEnd.3 cells: internalised
[2]
  Internalisation into HEY cells in bottom compartment after incubation on in vitro BBB model: observed to become internalised into the HEY cells

## 5′-GCGCGGTACCGCGCTAACGGAGGTTGCGTCCGT-3′ (GCGCGGTACCGCGCTAACGGAGGTTGCGTCCGN; listed as DNA, chemistry not given here) [Bi3]
[1]
  Internalisation into TfR-expressing bEnd.3 cells: internalised
[2]
  Internalisation into HEY cells in bottom compartment after incubation on in vitro BBB model: observed to become internalised into the HEY cells

## Bi1: aptamer conjugate based on TfR1 and scrambled EpCAM binding loop, negative control, SEQ ID NO:8 (GCGCGTGCACGCGCTAACGGATTCCTTTTCCGN; listed as DNA, further chemistry not given here)
[1]
  Internalisation into TfR-expressing bEnd.3 cells: not
[2]
  Internalisation into HEY cells in bottom compartment after incubation on in vitro BBB model: not observed inside HEY cells

## TfR3: version of TfR1 with scrambled binding loop sequence, SEQ ID NO:6 (DNA GCGTGGTACCACGC; DNA, 5' {TYE665}, 3' [invdT], backbone not given here)
[1]; bEnd.3 cells, co-incubation with antibody R17217
  Co-localisation with the anti-TfR antibody: observed
